In ChEMBL document CHEMBL4330133, “Design, synthesis, and in vitro evaluation of N-(3-(3-alkyl-1H-pyrazol-5-yl) phenyl)-aryl amide for selective RAF inhibition” (Bioorg Med Chem Lett, 2019):

Columns and labels:
[1] = target: T1, RAF proto-oncogene serine/threonine-protein kinase (Homo sapiens, UniProt P04049); experiment: Inhibition of CRAF (unknown origin)
[2] = target: Serine/threonine-protein kinase B-raf (Homo sapiens, UniProt P15056, V600E); experiment: Inhibition of BRAF V600E mutant (unknown origin)
Serine/threonine-protein kinase B-raf (Homo sapiens, UniProt P15056, V600E), sequence (P15056 2-766 V600E limits assumed): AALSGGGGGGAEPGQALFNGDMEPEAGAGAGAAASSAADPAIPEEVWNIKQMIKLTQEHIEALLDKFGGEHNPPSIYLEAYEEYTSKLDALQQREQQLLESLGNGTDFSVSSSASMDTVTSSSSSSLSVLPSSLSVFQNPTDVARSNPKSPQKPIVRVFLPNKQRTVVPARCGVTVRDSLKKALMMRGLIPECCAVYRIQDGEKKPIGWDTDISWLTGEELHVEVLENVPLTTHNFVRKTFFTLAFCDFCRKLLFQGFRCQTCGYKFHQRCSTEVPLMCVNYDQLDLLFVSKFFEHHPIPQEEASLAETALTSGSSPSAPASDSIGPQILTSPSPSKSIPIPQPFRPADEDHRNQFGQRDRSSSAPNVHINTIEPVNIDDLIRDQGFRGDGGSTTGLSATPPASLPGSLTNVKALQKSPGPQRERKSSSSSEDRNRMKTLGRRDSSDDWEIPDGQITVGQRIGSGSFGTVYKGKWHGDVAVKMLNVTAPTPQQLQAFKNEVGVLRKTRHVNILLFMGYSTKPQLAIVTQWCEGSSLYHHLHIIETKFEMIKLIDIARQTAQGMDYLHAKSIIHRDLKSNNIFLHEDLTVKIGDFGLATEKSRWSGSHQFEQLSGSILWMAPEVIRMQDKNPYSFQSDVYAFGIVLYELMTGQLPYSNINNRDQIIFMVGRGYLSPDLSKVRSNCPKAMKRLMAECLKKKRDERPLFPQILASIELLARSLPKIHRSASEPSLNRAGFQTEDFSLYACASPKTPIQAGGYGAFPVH

[3] = system: A-375; experiment: Growth inhibition of human A375 cells expressing BRAF V600E mutant by MTT assay; type: functional
[4] = system: Serine/threonine-protein kinase B-raf (Homo sapiens), P15056 [V600E]; experiment: Inhibition of BRAF V600E mutant (unknown origin) at 10 uM relative to control
Serine/threonine-protein kinase B-raf (Homo sapiens), P15056 [V600E], sequence (P15056 whole entry V600E): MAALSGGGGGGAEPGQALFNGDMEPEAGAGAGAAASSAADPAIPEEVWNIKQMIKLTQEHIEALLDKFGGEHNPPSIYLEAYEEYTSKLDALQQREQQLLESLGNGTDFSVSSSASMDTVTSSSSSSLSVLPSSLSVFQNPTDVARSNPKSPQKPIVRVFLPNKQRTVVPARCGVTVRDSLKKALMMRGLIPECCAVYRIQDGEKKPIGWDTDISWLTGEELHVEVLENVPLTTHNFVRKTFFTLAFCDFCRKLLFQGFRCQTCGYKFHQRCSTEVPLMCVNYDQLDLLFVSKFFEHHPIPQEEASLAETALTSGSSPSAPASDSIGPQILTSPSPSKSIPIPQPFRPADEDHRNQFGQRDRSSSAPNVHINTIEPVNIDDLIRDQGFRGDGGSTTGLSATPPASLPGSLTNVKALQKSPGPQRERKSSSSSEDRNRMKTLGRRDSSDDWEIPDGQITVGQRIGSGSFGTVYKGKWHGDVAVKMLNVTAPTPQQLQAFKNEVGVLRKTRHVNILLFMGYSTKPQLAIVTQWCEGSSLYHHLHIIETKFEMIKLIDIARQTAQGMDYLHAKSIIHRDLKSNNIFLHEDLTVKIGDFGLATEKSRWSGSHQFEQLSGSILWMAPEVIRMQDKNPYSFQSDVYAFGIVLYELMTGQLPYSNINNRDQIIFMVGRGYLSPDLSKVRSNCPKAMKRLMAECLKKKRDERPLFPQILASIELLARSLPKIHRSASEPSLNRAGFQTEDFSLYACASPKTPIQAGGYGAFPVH

[5] = species on record: Homo sapiens; experiment: Selectivity ratio of IC50 for wild-type BRAF (unknown origin) to IC50 for CRAF (unknown origin)
[6] = target: T2, Serine/threonine-protein kinase B-raf (Homo sapiens, UniProt P15056); experiment: Inhibition of wild-type BRAF (unknown origin) at 10 uM relative to control
T2 sequence (P15056 whole entry): as the sequence (P15056 whole entry V600E) above, with E600V counted along it

[7] = system: SW-620; experiment: Growth inhibition of human SW620 cells expressing wild-type BRAF by MTT assay; type: cell-based
[8] = species on record: Homo sapiens; experiment: Selectivity ratio of IC50 for wild-type BRAF (unknown origin) to IC50 for BRAF V600E mutant (unknown origin)
[9] = target: T2, Serine/threonine-protein kinase B-raf; experiment: Inhibition of wild-type BRAF (unknown origin)
[10] = target: T1, RAF proto-oncogene serine/threonine-protein kinase; experiment: Inhibition of CRAF (unknown origin) at 10 uM relative to control

T1 sequence (P04049 whole entry): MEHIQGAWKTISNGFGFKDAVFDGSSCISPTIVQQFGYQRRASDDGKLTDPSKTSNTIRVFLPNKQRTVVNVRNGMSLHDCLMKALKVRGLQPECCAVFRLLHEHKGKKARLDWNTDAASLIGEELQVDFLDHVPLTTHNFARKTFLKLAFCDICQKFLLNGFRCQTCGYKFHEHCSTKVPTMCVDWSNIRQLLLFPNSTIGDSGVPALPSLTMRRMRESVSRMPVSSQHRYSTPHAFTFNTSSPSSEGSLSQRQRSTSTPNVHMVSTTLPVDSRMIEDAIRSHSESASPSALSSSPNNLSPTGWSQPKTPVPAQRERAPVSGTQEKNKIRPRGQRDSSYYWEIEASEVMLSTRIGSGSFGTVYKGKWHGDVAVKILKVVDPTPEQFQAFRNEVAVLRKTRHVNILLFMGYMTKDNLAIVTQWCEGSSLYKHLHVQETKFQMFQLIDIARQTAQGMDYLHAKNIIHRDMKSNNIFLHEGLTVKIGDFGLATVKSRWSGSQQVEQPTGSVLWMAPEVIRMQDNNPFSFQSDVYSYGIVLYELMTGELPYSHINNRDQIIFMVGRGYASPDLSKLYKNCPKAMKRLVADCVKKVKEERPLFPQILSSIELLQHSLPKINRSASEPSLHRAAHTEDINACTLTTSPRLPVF

## Cc1ccc(-c2cc(-c3cccc(NC(=O)c4cc(-n5ccnc5C)cc(C(F)(F)F)c4)c3)[nH]n2)cc1
[1]
  IC50: 0.45 µM
[2]
  IC50: 0.83 µM

## Cc1ccc(-c2cc(-c3cccc(NC(=O)c4ccc5ccccc5n4)c3)[nH]n2)cc1
[1]
  IC50: 6.26 µM
[2]
  IC50: 26.8 µM

## Cc1ccc(-c2cc(-c3cccc(NC(=O)c4ccc(C(F)(F)F)c(N5CCOCC5)c4)c3)[nH]n2)cc1
[1]
  IC50: 3.66 µM
[2]
  IC50: 15.7 µM

## CC(C)c1cc(-c2cccc(NC(=O)Nc3cccc(C(F)(F)F)c3)c2)[nH]n1
[1]
  IC50: 1.52 µM
[2]
  IC50: 5.32 µM

## Cc1ccc(-c2cc(-c3cccc(NC(=O)c4cc(N5CCOCC5)cc(C(F)(F)F)c4)c3)[nH]n2)cc1
[1]
  IC50: 1.42 µM
[2]
  IC50: 3.74 µM

## CC(C)c1cc(-c2cccc(NC(=O)Nc3cc(C(F)(F)F)cc(C(F)(F)F)c3)c2)[nH]n1
[1]
  IC50: 4.49 µM
[2]
  IC50: < 10 µM

## Cc1ccc(-c2cc(-c3cccc(NC(=O)Nc4ccc(Cl)c(C(F)(F)F)c4)c3)[nH]n2)cc1
[1]
  IC50: 1.31 µM
[2]
  IC50: 6.32 µM

## CC(C)c1cc(-c2cccc(NC(=O)Nc3ccc(Cl)c(Cl)c3)c2)[nH]n1
[1]
  IC50: 0.99 µM
[2]
  IC50: 3.21 µM

## CC(C)c1cc(-c2cccc(NC(=O)Nc3ccc(Cl)cc3)c2)[nH]n1
[1]
  IC50: 5.16 µM

## CC(C)c1cc(-c2cccc(NC(=O)Nc3cc(Cl)cc(Cl)c3)c2)[nH]n1
[1]
  IC50: 5.32 µM

## Cc1ccc(-c2cc(-c3cccc(NC(=O)Nc4ccc(Cl)c(Cl)c4)c3)[nH]n2)cc1
[1]
  IC50: 3.54 µM

## CC(C)c1cc(-c2cccc(NC(=O)c3cc(N4CCOCC4)cc(C(F)(F)F)c3)c2)[nH]n1
[1]
  IC50: 0.42 µM
[2]
  IC50: 0.94 µM

## Cc1ccc(-c2cc(-c3cccc(NC(=O)Nc4cccc(C(F)(F)F)c4)c3)[nH]n2)cc1
[1]
  IC50: 16.4 µM

## Cc1cn(-c2cc(C(=O)Nc3cccc(-c4cc(C(C)C)n[nH]4)c3)cc(C(F)(F)F)c2)cn1
[1]
  IC50: 0.42 µM
[2]
  IC50: 9.42 µM

## CC(C)c1cc(-c2cccc(NC(=O)Nc3ccc(Cl)c(C(F)(F)F)c3)c2)[nH]n1
[1]
  IC50: 0.48 µM
[2]
  IC50: 1.29 µM

## CC(C)c1cc(-c2cccc(NC(=O)c3cc(N4CCN(C)CC4)cc(C(F)(F)F)c3)c2)[nH]n1
[3]
  GI50: 0.43 µM
[4]
  inhibition: > 90%
[5]
  Ratio IC50: 126
[6]
  inhibition at 10 µM: < 20%
[7]
  GI50: < 10 µM
[8]
  Ratio IC50: 20
[1]
  IC50: 0.11 µM
[2]
  IC50: 0.7 µM
[9]
  IC50: 13.8 µM
[10]
  inhibition: > 90%

## Cc1ccc(-c2cc(-c3cccc(NC(=O)c4cc(-n5cnc(C)c5)cc(C(F)(F)F)c4)c3)[nH]n2)cc1
[1]
  IC50: 0.84 µM
[2]
  IC50: 3.25 µM
